Experimental data: patent US9650339B2, “Inhibitors of histone demethylases” (Gilead Sciences, Inc., priority 2013, dated 2017)

Columns and labels:
Assay type in all cases: cell-based
KDM4C = molecular target: T1, KDM4C (Homo sapiens, UniProt Q9H3R0); experiment: Histone lysine demethylase immunofluorescence assay, U2OS cells transfected with KDM4C; settings: U2OS cells transfected with pCMVHA KDM4C; mark detected H3K9me3; 20 hours
T1 construct: Full length; host or cells: U2OS
T1 sequence (Q9H3R0 1-1056): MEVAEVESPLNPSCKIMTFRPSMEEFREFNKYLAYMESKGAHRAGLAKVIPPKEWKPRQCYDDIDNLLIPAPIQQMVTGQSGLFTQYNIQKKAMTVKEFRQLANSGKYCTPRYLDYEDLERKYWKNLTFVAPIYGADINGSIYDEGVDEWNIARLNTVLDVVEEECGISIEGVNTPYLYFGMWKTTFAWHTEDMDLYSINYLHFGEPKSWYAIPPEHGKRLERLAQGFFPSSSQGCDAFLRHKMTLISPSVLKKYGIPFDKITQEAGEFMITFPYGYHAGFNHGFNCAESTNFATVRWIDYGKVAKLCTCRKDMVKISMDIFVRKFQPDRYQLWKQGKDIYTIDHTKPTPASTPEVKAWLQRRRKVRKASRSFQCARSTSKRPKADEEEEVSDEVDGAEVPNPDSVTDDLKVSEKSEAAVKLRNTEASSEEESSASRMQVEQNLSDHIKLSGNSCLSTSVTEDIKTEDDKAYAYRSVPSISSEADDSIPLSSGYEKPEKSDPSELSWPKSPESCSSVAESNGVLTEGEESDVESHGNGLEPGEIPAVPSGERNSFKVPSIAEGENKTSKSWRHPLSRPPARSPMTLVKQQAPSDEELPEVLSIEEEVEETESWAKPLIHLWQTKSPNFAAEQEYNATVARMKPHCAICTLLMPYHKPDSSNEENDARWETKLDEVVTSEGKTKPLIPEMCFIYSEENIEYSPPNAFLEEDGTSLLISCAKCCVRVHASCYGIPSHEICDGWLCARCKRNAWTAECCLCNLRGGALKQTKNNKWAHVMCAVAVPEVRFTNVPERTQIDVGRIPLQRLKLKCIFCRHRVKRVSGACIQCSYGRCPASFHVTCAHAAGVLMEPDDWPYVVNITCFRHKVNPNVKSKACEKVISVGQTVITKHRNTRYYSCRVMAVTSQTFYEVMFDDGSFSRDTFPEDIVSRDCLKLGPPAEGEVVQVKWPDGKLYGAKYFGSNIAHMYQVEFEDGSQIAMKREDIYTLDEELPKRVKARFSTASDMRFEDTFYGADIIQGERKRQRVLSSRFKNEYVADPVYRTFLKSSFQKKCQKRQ
Description: (§1) U2OS cells were seeded 24 hours before transfection. Transfection was performed with Fugene HD transfection reagent as recommended by the manufacturer. 6 hours after transfection, the cells were harvested and seeded into multi well plates into media containing compound. The media used was DMEM containing 10% FBS and pen/strep. 20 hours after incubation of cells with compounds, the cells were washed in PBS, harvested by fixation with formaldehyde 4% aqueous solution, and washed in PBS. Subsequently, the cells were permeabilized in PBS with 0.2% Triton X-100 for. Blocking was performed in PBS with 0.2% Triton X-100 and 5% FBS. The cells were incubated with primary antibodies in blocking solution over night at 4° C. The primary antibodies used in the assays were HA.11 (Covance, MMS-101P) and the antibody detecting the mark specified in the table below. After incubation with primary antibodies, the cells were washed with PBS, incubated with secondary antibodies (Alexa fluor 594 goat anti rabbit IgG, Invitrogen, A11012; Alexa flour 488 donkey anti mouse IgG, Invitrogen, A21202) and Hoechst, (Sigma, 33342) in blocking solution, and washed again with PBS. Finally, PBS was added and high throughput imaging and analysis were performed by an IN Cell Analyzer 1000 (GE Healthcare). The robot software analyzed individual cells and divided these into HA+ (transfected cells) and HA− (non-transfected cells). The IC50 values were based on an average measure of the staining of the mark specified in the table below in the transfected cells.

KDM2A = molecular target: T2, KDM2A (Homo sapiens, UniProt Q9Y2K7); experiment: Histone lysine demethylase immunofluorescence assay, U2OS cells transfected with KDM2A; settings: U2OS cells transfected with pCMVHA KDM2A; mark detected H3K36me2; 20 hours
T2 construct: Full length; host or cells: U2OS
T2 sequence (Q9Y2K7 1-1162): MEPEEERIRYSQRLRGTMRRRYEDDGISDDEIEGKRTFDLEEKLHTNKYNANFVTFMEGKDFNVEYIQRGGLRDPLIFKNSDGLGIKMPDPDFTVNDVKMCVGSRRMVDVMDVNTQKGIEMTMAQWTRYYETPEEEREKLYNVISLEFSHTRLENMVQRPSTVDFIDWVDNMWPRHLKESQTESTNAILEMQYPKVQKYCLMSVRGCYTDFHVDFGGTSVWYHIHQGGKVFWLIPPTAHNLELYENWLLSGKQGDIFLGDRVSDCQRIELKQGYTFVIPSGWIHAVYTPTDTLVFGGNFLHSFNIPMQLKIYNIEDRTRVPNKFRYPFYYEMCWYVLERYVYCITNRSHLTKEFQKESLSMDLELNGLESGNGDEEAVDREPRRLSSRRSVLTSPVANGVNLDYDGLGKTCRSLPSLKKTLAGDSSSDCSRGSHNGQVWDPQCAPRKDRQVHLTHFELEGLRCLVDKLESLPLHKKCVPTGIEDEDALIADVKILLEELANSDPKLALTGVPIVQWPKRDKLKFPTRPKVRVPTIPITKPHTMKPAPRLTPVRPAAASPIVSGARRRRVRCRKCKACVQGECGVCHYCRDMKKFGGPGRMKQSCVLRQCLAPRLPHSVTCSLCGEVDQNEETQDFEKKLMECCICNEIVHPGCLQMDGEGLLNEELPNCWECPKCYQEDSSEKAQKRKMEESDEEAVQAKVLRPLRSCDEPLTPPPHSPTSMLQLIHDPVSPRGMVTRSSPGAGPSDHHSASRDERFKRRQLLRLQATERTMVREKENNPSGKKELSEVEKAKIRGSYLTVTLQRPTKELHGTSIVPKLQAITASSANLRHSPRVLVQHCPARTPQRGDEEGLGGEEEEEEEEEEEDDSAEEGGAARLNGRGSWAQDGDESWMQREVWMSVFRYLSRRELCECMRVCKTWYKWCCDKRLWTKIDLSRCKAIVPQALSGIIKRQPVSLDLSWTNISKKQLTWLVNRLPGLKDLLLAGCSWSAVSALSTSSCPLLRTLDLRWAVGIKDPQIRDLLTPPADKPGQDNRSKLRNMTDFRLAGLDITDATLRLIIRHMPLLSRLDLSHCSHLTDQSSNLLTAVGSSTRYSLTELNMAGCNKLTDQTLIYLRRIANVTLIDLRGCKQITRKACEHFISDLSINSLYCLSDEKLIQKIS
Description: as §1

KDM5B = molecular target: T3, KDM5B (Homo sapiens, UniProt Q9UGL1); experiment: Histone lysine demethylase immunofluorescence assay, U2OS cells transfected with KDM5B; settings: U2OS cells transfected with pCMVHA KDM5B; mark detected H3K4me2; 20 hours
T3 construct: (a.a. 1-752); host or cells: U2OS
T3 sequence (Q9UGL1 1-752): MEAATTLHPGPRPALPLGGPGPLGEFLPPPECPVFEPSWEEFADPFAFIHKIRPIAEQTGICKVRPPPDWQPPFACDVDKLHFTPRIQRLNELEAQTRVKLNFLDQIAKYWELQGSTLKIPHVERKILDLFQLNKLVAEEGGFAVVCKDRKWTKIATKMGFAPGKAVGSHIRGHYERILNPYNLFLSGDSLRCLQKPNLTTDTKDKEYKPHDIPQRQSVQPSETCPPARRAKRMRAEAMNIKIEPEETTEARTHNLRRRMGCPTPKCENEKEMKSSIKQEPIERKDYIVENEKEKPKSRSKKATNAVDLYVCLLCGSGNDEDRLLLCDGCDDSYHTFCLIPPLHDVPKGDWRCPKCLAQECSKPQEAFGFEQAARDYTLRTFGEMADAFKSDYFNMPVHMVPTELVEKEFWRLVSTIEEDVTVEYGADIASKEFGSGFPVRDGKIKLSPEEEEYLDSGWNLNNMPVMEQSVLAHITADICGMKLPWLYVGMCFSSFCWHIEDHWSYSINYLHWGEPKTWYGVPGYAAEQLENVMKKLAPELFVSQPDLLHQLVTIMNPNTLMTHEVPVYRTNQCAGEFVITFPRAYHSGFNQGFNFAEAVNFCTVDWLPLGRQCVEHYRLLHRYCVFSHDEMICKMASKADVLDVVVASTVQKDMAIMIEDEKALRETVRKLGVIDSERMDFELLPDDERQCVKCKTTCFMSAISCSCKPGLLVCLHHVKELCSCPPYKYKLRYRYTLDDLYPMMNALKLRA
Description: as §1

Measured: IC50

CN(CCc1ccccc1)C(=O)CNCc1cc(/C=N/CCO)ccn1 [Compound 96, 2-[{4-[([(2-hydroxyethyl)imino]-methyl]pyridin-2-yl}methyl)amino]-N-methyl-N-(2-phenylethyl)acetamide]
> 2500 nM: all assays above
